Results reported in PubChem BioAssay AID248 (DTP/NCI, 2004).
Values joined by “and” are separate entries in the source; they are usually repeats but may differ in a detail not shown here. Equal entries are not always repeated. Toxic doses and inconclusive results are not listed. No stated cut-off is given here; in the data, active means T/C of 150% or more; inactive means T/C below 125%.

System: L1210 leukemia ip in BDF1 mice, survival T/C
Experiment: NCI In Vivo Anticancer Drug Screen. Data for tumor model L1210 Leukemia (intraperitoneal) in B6D2F1 (BDF1) mice
Details: endpoint: mean survival time, higher = longer survival
Summary of the method: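 Ratio derived from survival: compound-dosed mice over vehicle-dosed mice, all bearing a transplantable tumor.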

[1] = dose: 50.0 mg/kg/injection, schedule: Q04DX003 (ip), vehicle: saline with Tween-80
[2] = dose: 50.0 mg/kg/injection, schedule: Q01DX009 (ip), vehicle: saline with Tween-80
[3] = dose: 100.0 mg/kg/injection, schedule: Q04DX003 (ip), vehicle: saline with Tween-80
[4] = dose: 200.0 mg/kg/injection, schedule: Q04DX003 (ip), vehicle: saline with Tween-80
[5] = dose: 400.0 mg/kg/injection, schedule: Q04DX003 (ip), vehicle: saline with Tween-80
[6] = dose: 100.0 mg/kg/injection, schedule: Q01DX009 (ip), vehicle: Klucel (hydroxypropylcellulose) (HPC)
[7] = dose: 200.0 mg/kg/injection, schedule: Q01DX009 (ip), vehicle: Klucel (hydroxypropylcellulose) (HPC)
[8] = dose: 400.0 mg/kg/injection, schedule: Q01DX009 (ip), vehicle: Klucel (hydroxypropylcellulose) (HPC)
[9] = dose: 50.0 mg/kg/injection, schedule: Q04DX003 (ip), vehicle: saline
[10] = dose: 100.0 mg/kg/injection, schedule: Q04DX003 (ip), vehicle: saline
[11] = dose: 200.0 mg/kg/injection, schedule: Q04DX003 (ip), vehicle: saline
[12] = dose: 100.0 mg/kg/injection, schedule: Q01DX001 (ip), vehicle: saline
[13] = dose: 200.0 mg/kg/injection, schedule: Q01DX001 (ip), vehicle: saline
[14] = dose: 400.0 mg/kg/injection, schedule: Q01DX001 (ip), vehicle: saline
[15] = dose: 200.0 mg/kg/injection, schedule: Q04DX002 (ip), vehicle: other

Measured: T/C

O=C(/C=C/c1ccccn1)c1ccccc1O
inactive: dose: 12.5 mg/kg/injection, schedule: Q04DX003 (ip), vehicle: saline with Tween-80 92 % of control | dose: 25.0 mg/kg/injection, schedule: Q04DX003 (ip), vehicle: saline with Tween-80 100 % of control | [1] 92 % of control

O=C1Nc2ccc(Br)cc2C1(O)Cc1cccc([N+](=O)[O-])c1 (stereo unspecified)
inactive: [2] 90 % of control | dose: 100.0 mg/kg/injection, schedule: Q01DX009 (ip), vehicle: saline with Tween-80 93 % of control | dose: 100.0 mg/kg/injection, schedule: Q04DX002 (ip), vehicle: saline with Tween-80 91 % of control | dose: 200.0 mg/kg/injection, schedule: Q01DX009 (ip), vehicle: saline with Tween-80 90 % of control | dose: 200.0 mg/kg/injection, schedule: Q04DX002 (ip), vehicle: saline with Tween-80 91 % of control

CSCCC(NC(=O)CNC(=O)OCc1ccccc1)C(=O)O (stereo unspecified)
inactive: [3] 106 % of control | [4] 95 % of control | [5] 107 % of control

O=C(O)c1ccccc1Cc1ccc2c(c1)Cc1ccccc1-2
inactive: dose: 100.0 mg/kg/injection, schedule: Q01DX001 (ip), vehicle: carboxymethylcellulose (CMC) 92 % of control | dose: 200.0 mg/kg/injection, schedule: Q01DX001 (ip), vehicle: carboxymethylcellulose (CMC) 94 % of control | dose: 400.0 mg/kg/injection, schedule: Q01DX001 (ip), vehicle: carboxymethylcellulose (CMC) 113 % of control

CC(=O)CC(=O)Nc1ccc(Cl)cc1Cl
inactive: [6] 100 % of control | dose: 100.0 mg/kg/injection, schedule: Q04DX003 (ip), vehicle: Klucel (hydroxypropylcellulose) (HPC) 98 % of control | [7] 102 % of control | dose: 200.0 mg/kg/injection, schedule: Q04DX003 (ip), vehicle: Klucel (hydroxypropylcellulose) (HPC) 91 % of control | [8] 98 % of control | dose: 400.0 mg/kg/injection, schedule: Q04DX003 (ip), vehicle: Klucel (hydroxypropylcellulose) (HPC) 93 % of control

O=C(c1ccccc1)c1nc2ccccc2s1
inactive: dose: 12.5 mg/kg/injection, schedule: Q01DX005 (ip), vehicle: other 94 % of control | dose: 25.0 mg/kg/injection, schedule: Q01DX005 (ip), vehicle: other 90 % of control | dose: 50.0 mg/kg/injection, schedule: Q01DX005 (ip), vehicle: other 89 % of control | dose: 100.0 mg/kg/injection, schedule: Q01DX005 (ip), vehicle: other 89 % of control | dose: 200.0 mg/kg/injection, schedule: Q01DX005 (ip), vehicle: other 89 % of control

CC(=O)N(C(C)C)C(C)C
inactive: dose: 0.75 mg/kg/injection, schedule: Q01DX001 (ip), vehicle: saline with Tween-80 100 % of control | dose: 1.5 mg/kg/injection, schedule: Q01DX001 (ip), vehicle: saline with Tween-80 97 % of control | dose: 3.0 mg/kg/injection, schedule: Q01DX001 (ip), vehicle: saline with Tween-80 102 % of control | dose: 3.12 mg/kg/injection, schedule: Q01DX001 (ip), vehicle: saline with Tween-80 98 % of control | dose: 12.5 mg/kg/injection, schedule: Q01DX001 (ip), vehicle: saline with Tween-80 100 % of control

CCC1(CC)NC(=O)NC1=O
inactive: [9] 102 % of control | dose: 100.0 mg/kg/injection, schedule: Q01DX009 (ip), vehicle: saline 99 % of control | [10] 105 % of control | dose: 200.0 mg/kg/injection, schedule: Q01DX009 (ip), vehicle: saline 98 % of control | [11] 102 % of control | dose: 400.0 mg/kg/injection, schedule: Q01DX009 (ip), vehicle: saline 102 % of control | dose: 400.0 mg/kg/injection, schedule: Q04DX003 (ip), vehicle: saline 103 % of control

CC(=O)C(C(C)=O)C(c1ccc2c(c1)OCO2)C(C(C)=O)C(C)=O
inactive: dose: 12.5 mg/kg/injection, schedule: Q01DX009 (ip), vehicle: saline with Tween-80 93 % of control | dose: 25.0 mg/kg/injection, schedule: Q01DX009 (ip), vehicle: saline with Tween-80 92 % of control | [2] 93 % of control and 92 % of control | [3] 86 % of control

O=C(OCCCl)c1ccc([N+](=O)[O-])cc1
inactive: [3] 95 % of control | [4] 95 % of control | [5] 102 % of control

CN(C=O)c1ccc(C(=O)NC(CC(=O)O)CC(=O)O)cc1
inactive: [12] 111 % of control | [13] 94 % of control | [14] 103 % of control

Cc1cc(=O)c2cccc(-c3ccccc3)c2[nH]1
inactive: dose: 25.0 mg/kg/injection, schedule: Q01DX009 (ip), vehicle: acetone 95 % of control | dose: 25.0 mg/kg/injection, schedule: Q04DX003 (ip), vehicle: saline 101 % of control | dose: 50.0 mg/kg/injection, schedule: Q01DX009 (ip), vehicle: acetone 92 % of control | [9] 100 % of control | dose: 100.0 mg/kg/injection, schedule: Q01DX009 (ip), vehicle: acetone 92 % of control | [10] 100 % of control | [11] 96 % of control

CC1(C)N=C(N)N=C(N)N1c1ccc2c(Cl)c(Cl)ccc2c1
inactive: [1] 106 % of control | [3] 107 % of control and 114 % of control | [4] 107 % of control

Nc1ncns1
inactive: dose: 66.0 mg/kg/injection, schedule: Q04DX003 (ip), vehicle: saline 104 % of control | [10] 117 % of control | dose: 150.0 mg/kg/injection, schedule: Q04DX003 (ip), vehicle: saline 120 % of control

COC1(OC)C2(Cl)CC(=O)C3CC(=O)C3C1(Cl)C(Cl)=C2Cl (stereo unspecified)
inactive: dose: 50.0 mg/kg/injection, schedule: Q01DX009 (ip), vehicle: Klucel (hydroxypropylcellulose) (HPC) 92 % of control | [12] 100 % of control | [6] 94 % of control | [13] 94 % of control | [7] 102 % of control | [14] 101 % of control

CCCCCCCCCCCC(=O)SCCSC(=O)CCCCCCCCCCC
inactive: dose: 100.0 mg/kg/injection, schedule: Q04DX002 (ip), vehicle: other 94 % of control and 104 % of control | dose: 100.0 mg/kg/injection, schedule: Q04DX003 (ip), vehicle: other 86 % of control and 89 % of control | [15] 113 % of control and 90 % of control | dose: 200.0 mg/kg/injection, schedule: Q04DX003 (ip), vehicle: other 96 % of control and 89 % of control | dose: 400.0 mg/kg/injection, schedule: Q04DX002 (ip), vehicle: other 103 % of control and 109 % of control | dose: 400.0 mg/kg/injection, schedule: Q04DX003 (ip), vehicle: other 89 % of control and 92 % of control

NC1C2CC3CC(C2)CC1C3 (stereo unspecified)
inactive: dose: 5.0 mg/kg/injection, schedule: Q01DX001 (ip), vehicle: saline 102 % of control | dose: 10.0 mg/kg/injection, schedule: Q01DX001 (ip), vehicle: saline 98 % of control | dose: 20.0 mg/kg/injection, schedule: Q01DX001 (ip), vehicle: saline 107 % of control | dose: 40.0 mg/kg/injection, schedule: Q01DX001 (ip), vehicle: saline 96 % of control | dose: 75.0 mg/kg/injection, schedule: Q01DX001 (ip), vehicle: other 93 % of control | dose: 80.0 mg/kg/injection, schedule: Q01DX001 (ip), vehicle: saline 96 % of control

O=C(N/N=C/c1c[nH]c2ccccc12)C1CCCO1 (stereo unspecified)
inactive: [6] 98 % of control | [7] 98 % of control | [8] 94 % of control

O=C(NNC1CCCCC1)c1ccccc1
inactive: dose: 100.0 mg/kg/injection, schedule: Q04DX003 (ip), vehicle: acetone 107 % of control | dose: 200.0 mg/kg/injection, schedule: Q04DX003 (ip), vehicle: acetone 109 % of control | dose: 400.0 mg/kg/injection, schedule: Q04DX003 (ip), vehicle: acetone 86 % of control

CNC1CCCc2ccccc2C1O (stereo unspecified)
inactive: [12] 102 % of control

NC(=O)OCCc1c2ccccc2nc2ccccc12
inactive: [15] 103 % of control
